The source of these data is patent US6906097B2, “8-azaprostaglandin analogs as agents for lowering intraocular pressure” (Allergan, Inc., priority 2002, dated 2005).

This experiment has as its target T1, hEP3A (Homo sapiens, UniProt P43115).
T1 construct: expressed in transfected cells
T1 sequence (P43115 1-390): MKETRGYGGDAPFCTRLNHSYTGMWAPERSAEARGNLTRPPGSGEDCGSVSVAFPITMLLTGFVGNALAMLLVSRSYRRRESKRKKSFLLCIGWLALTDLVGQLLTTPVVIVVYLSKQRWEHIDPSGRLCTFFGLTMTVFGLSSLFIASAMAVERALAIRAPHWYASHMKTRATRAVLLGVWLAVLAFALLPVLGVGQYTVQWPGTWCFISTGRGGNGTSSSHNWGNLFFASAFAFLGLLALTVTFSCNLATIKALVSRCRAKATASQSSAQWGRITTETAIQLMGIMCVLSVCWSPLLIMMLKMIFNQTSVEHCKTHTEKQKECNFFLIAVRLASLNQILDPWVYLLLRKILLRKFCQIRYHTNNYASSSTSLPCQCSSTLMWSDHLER
Nature of the experiment: Functional data, human recombinant EP3A receptor stable transfectants. In kind it is cell-based. As for the experimental part: Human Recombinant EP1, EP2, EP3, EP4, FP, TP, IP and DP Receptors: Stable Transfectants
Plasmids encoding the human EP1, EP2, EP3, EP4, FP, TP, IP and DP receptors were prepared by cloning the respective coding sequences into the eukaryotic expression vector pCEP4 (Invitrogen). The pCEP4 vector contains an Epstein Barr virus (EBV) origin of replication, which permits episomal replication in primate cell lines expressing EBV nuclear antigen (EBNA-1). It also contains a hygromycin resistance gene that is used for eukaryotic selection. […] HEK-293 cells were grown in DMEM with 10% fetal bovine serum (FBS), 250 μg ml^−1 G418 (Life Technologies) and 200 μg ml^−1 gentamicin or penicillin/streptomycin.
For transfection, the cells were grown to 50-60% confluency on 10 cm plates. The plasmid pCEP4 incorporating cDNA inserts for the respective human prostanoid receptor (20 μg) was added to 500 μl of 250 mM CaCl2. […] After 30 min, 9 ml DMEM were added to the mixture. The DNA/DMEM/calcium phosphate mixture was then added to the cells, which had been previously rinsed with 10 ml PBS. The cells were then incubated for 5 hr at 37° C. in humidified 95% air/5% CO2. The calcium phosphate solution was then removed and the cells were treated with 10% glycerol in DMEM for 2 min. The glycerol solution was then replaced by DMEM with 10% FBS. The cells were incubated overnight and the medium was replaced by DMEM/10% FBS containing 250 μg ml^−1 G418 and penicillin/streptomycin. The following day hygromycin B was added to a final concentration of 200 μg ml^−1.
Ten days after transfection, hygromycin B resistant clones were individually selected and transferred to a separate well on a 24 well plate. At confluence each clone was transferred to one well of a 6 well plate, and then expanded in a 10 cm dish. Cells were maintained under continuous hygromycin selection until use.

On to `O=C(O)CCCCCCN1C(=O)CC[C@@H]1CCC(O)Cc1cccc(Cl)c1` (stereo partly drawn) [Example 1, 7-[2S-[3R-Hydroxy-4-(chloro-phenyl)-butyl]-5-oxo-pyrrolidin-1-yl]-heptanoic acid], for which the EC50 was found to be 608 nM.
